In ChEMBL document CHEMBL1201861, “Genomics of Drug Sensitity in Cancer screening data, Wellcome Trust Sanger Institute”:

How the values were obtained:
Assay in all cases: cells
MLMA = type: functional, cell-based, Homo sapiens; details: Homo sapiens, MLMA;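 further: growth inhibition of MLMA cells (human), determined through a cell viability readout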
Description: SANGER: Inhibition of human MLMA cell growth in a cell viability assay.

NB17 = type: functional, cell-based, Homo sapiens; details: Homo sapiens, NB17;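 further: growth inhibition of NB17 cells, read out with a cell viability assay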
Description: SANGER: Inhibition of human NB17 cell growth in a cell viability assay.

TGW = type: functional, cell-based, Homo sapiens; details: Homo sapiens, TGW;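 further: growth inhibition of human TGW cells, read out with a cell viability assay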
Description: SANGER: Inhibition of human TGW cell growth in a cell viability assay.

CTB-1 = type: functional, cell-based, Homo sapiens; details: Homo sapiens, CTB-1
Description: SANGER: Inhibition of human CTB-1 cell growth in a cell viability assay.

TGBC1TKB = type: functional, cell-based, Homo sapiens; details: Homo sapiens, TGBC1TKB;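 further: growth inhibition of TGBC1TKB cells, read out by a cell viability assay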
Description: SANGER: Inhibition of human TGBC1TKB cell growth in a cell viability assay.

NCI-H69 = type: functional, cell-based, Homo sapiens; details: Homo sapiens, NCI-H69;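 further: growth inhibition of the cell line, read out with a cell viability assay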
Description: SANGER: Inhibition of human NCI-H69 cell growth in a cell viability assay.

K562 = type: functional, cell-based, Homo sapiens; details: Homo sapiens, K562
Description: SANGER: Inhibition of human K-562 cell growth in a cell viability assay.

SW982 = type: functional, cell-based, Homo sapiens; details: Homo sapiens, SW982;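 further: growth inhibition of SW982 cells, read out with a cell viability assay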
Description: SANGER: Inhibition of human SW982 cell growth in a cell viability assay.

LS-513 = type: functional, cell-based, Homo sapiens; details: Homo sapiens, LS-513
Description: SANGER: Inhibition of human LS-513 cell growth in a cell viability assay.

DSH1 = type: functional, cell-based, Homo sapiens; details: Homo sapiens, DSH1;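 further: growth inhibition of human DSH1 cells, measured with a cell viability readout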
Description: SANGER: Inhibition of human DSH1 cell growth in a cell viability assay.

SK-MEL-2 = type: functional, cell-based, Homo sapiens; details: Homo sapiens, SK-MEL-2;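 further: growth inhibition of human SK-MEL-2 cells measured with a cell viability assay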
Description: SANGER: Inhibition of human SK-MEL-2 cell growth in a cell viability assay.

HL-60 = type: functional, cell-based, Homo sapiens; details: Homo sapiens, HL-60;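 further: growth inhibition of human HL-60 cells, read out with a cell viability assay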
Description: SANGER: Inhibition of human HL-60 cell growth in a cell viability assay.

MC116 = type: functional, cell-based, Homo sapiens; details: Homo sapiens, MC116;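 further: growth inhibition of MC116 cells, read out with a cell viability assay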
Description: SANGER: Inhibition of human MC116 cell growth in a cell viability assay.

ONS-76 = type: functional, cell-based, Homo sapiens; details: Homo sapiens, ONS-76;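 further: growth inhibition of human ONS-76 cells, read out with a cell viability assay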
Description: SANGER: Inhibition of human ONS-76 cell growth in a cell viability assay.

CW-2 = type: functional, cell-based, Homo sapiens; details: Homo sapiens, CW-2;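 further: growth inhibition of CW-2 cells, read out by a cell viability assay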
Description: SANGER: Inhibition of human CW-2 cell growth in a cell viability assay.

JAR = type: functional, cell-based, Homo sapiens; details: Homo sapiens, JAR;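 further: growth inhibition of human JAR cells determined with a cell viability assay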
Description: SANGER: Inhibition of human JAR cell growth in a cell viability assay.

NH-12 = type: functional, cell-based, Homo sapiens; details: Homo sapiens, NH-12;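 further: growth inhibition of NH-12 cells, read out with a cell viability assay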
Description: SANGER: Inhibition of human NH-12 cell growth in a cell viability assay.

MFM-223 = type: functional, cell-based, Homo sapiens; details: Homo sapiens, MFM-223
Description: SANGER: Inhibition of human MFM-223 cell growth in a cell viability assay.

HH = type: functional, cell-based, Homo sapiens; details: Homo sapiens, HH
Description: SANGER: Inhibition of human HH cell growth in a cell viability assay.

NCI-H1092 = type: functional, cell-based, Homo sapiens; details: Homo sapiens, NCI-H1092;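 further: cell growth inhibition measured with a cell viability assay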
Description: SANGER: Inhibition of human NCI-H1092 cell growth in a cell viability assay.

SK-UT-1 = type: functional, cell-based, Homo sapiens; details: Homo sapiens, SK-UT-1;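 further: growth inhibition of SK-UT-1 cells, measured by a cell viability assay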
Description: SANGER: Inhibition of human SK-UT-1 cell growth in a cell viability assay.

GAK = type: functional, cell-based, Homo sapiens; details: Homo sapiens, GAK;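 further: cell growth inhibition read out by a cell viability assay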
Description: SANGER: Inhibition of human GAK cell growth in a cell viability assay.

CGTH-W-1 = type: functional, cell-based, Homo sapiens; details: Homo sapiens, CGTH-W-1;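 further: growth inhibition of human CGTH-W-1 cells measured by cell viability assay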
Description: SANGER: Inhibition of human CGTH-W-1 cell growth in a cell viability assay.

OS-RC-2 = type: functional, cell-based, Homo sapiens; details: Homo sapiens, OS-RC-2;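 further: growth inhibition of human OS-RC-2 cells, measured by a cell viability assay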
Description: SANGER: Inhibition of human OS-RC-2 cell growth in a cell viability assay.

QIMR-WIL = type: functional, cell-based, Homo sapiens; details: Homo sapiens, QIMR-WIL;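 further: growth inhibition of QIMR-WIL cells, read out with a cell viability assay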
Description: SANGER: Inhibition of human QIMR-WIL cell growth in a cell viability assay.

LS-123 = type: functional, cell-based, Homo sapiens; details: Homo sapiens, LS-123
Description: SANGER: Inhibition of human LS-123 cell growth in a cell viability assay.

KM12 = type: functional, cell-based, Homo sapiens; details: Homo sapiens, KM12;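 further: KM12 cell growth inhibition, read out with a cell viability assay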
Description: SANGER: Inhibition of human KM12 cell growth in a cell viability assay.

OCUB-M = type: functional, cell-based, Homo sapiens; details: Homo sapiens, OCUB-M;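 further: growth inhibition of the cancer cell line, read out through a cell viability assay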
Description: SANGER: Inhibition of human OCUB-M cell growth in a cell viability assay.

HD-MY-Z = type: functional, cell-based, Homo sapiens; details: Homo sapiens, HD-MY-Z;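 further: growth inhibition of HD-MY-Z cells, read out with a cell viability assay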
Description: SANGER: Inhibition of human HD-MY-Z cell growth in a cell viability assay.

EW-11 = type: functional, cell-based, Homo sapiens; details: Homo sapiens, EW-11;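 further: growth inhibition of human EW-11 cells, measured with a cell viability assay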
Description: SANGER: Inhibition of human EW-11 cell growth in a cell viability assay.

U-87 MG = type: functional, cell-based, Homo sapiens, U-87MG ATCC; details: Homo sapiens, U-87 MG;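 further: growth inhibition of the cells measured with a viability assay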
Description: SANGER: Inhibition of human U-87-MG cell growth in a cell viability assay.

HCC 2998 = type: functional, cell-based, Homo sapiens; details: Homo sapiens, HCC 2998;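 further: growth inhibition of human HCC2998 cells, measured with a cell viability read-out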
Description: SANGER: Inhibition of human HCC2998 cell growth in a cell viability assay.

SNU-C2B = type: functional, cell-based, Homo sapiens; details: Homo sapiens, SNU-C2B;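 further: cell viability readout used to measure compound-driven suppression of SNU-C2B cell proliferation, IC50 marking half-maximal growth inhibition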
Description: SANGER: Inhibition of human SNU-C2B cell growth in a cell viability assay.

KU812 cell line = type: functional, cell-based, Homo sapiens; details: Homo sapiens, KU812;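 further: growth inhibition of KU812 cells, read out with a cell viability assay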
Description: SANGER: Inhibition of human KU812 cell growth in a cell viability assay.

LC-2-ad = type: functional, cell-based, Homo sapiens; details: Homo sapiens, LC-2-ad;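 further: growth inhibition of human LC-2-ad cells, read out with a cell viability assay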
Description: SANGER: Inhibition of human LC-2-ad cell growth in a cell viability assay.

LAMA-84 = type: functional, cell-based, Homo sapiens; details: Homo sapiens, LAMA-84;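 further: growth inhibition of LAMA-84 cells, read out with a cell viability assay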
Description: SANGER: Inhibition of human LAMA-84 cell growth in a cell viability assay.

8-MG-BA = type: functional, cell-based, Homo sapiens; details: Homo sapiens, 8-MG-BA;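 further: growth inhibition of 8-MG-BA cells, read out with a cell viability assay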
Description: SANGER: Inhibition of human 8-MG-BA cell growth in a cell viability assay.

KURAMOCHI = type: functional, cell-based, Homo sapiens; details: Homo sapiens, KURAMOCHI;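 further: growth inhibition of KURAMOCHI cells, read out with a cell viability assay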
Description: SANGER: Inhibition of human KURAMOCHI cell growth in a cell viability assay.

SBC-1 = type: functional, cell-based, Homo sapiens; details: Homo sapiens, SBC-1;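 further: cell viability assay measuring growth inhibition of the SBC-1 cell line, IC50 being the concentration that halves growth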
Description: SANGER: Inhibition of human SBC-1 cell growth in a cell viability assay.

HAL-01 = type: functional, cell-based, Homo sapiens; details: Homo sapiens, HAL-01;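 further: growth inhibition of human HAL-01 cells, read out with a cell viability assay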
Description: SANGER: Inhibition of human HAL-01 cell growth in a cell viability assay.

EW-13 = type: functional, cell-based, Homo sapiens; details: Homo sapiens, EW-13;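 further: growth inhibition of EW-13 cells, read out with a cell viability assay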
Description: SANGER: Inhibition of human EW-13 cell growth in a cell viability assay.

A388 = type: functional, cell-based, Homo sapiens; details: Homo sapiens, A388;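 further: growth inhibition of human A388 cells, read out with a cell viability assay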
Description: SANGER: Inhibition of human A388 cell growth in a cell viability assay.

COR-L88 = type: functional, cell-based, Homo sapiens; details: Homo sapiens, COR-L88;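 further: growth inhibition of COR-L88 cells, read out with a cell viability assay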
Description: SANGER: Inhibition of human COR-L88 cell growth in a cell viability assay.

MS-1 = type: functional, cell-based, Homo sapiens; details: Homo sapiens, MS-1;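 further: growth inhibition of MS-1 cells, read out by cell viability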
Description: SANGER: Inhibition of human MS-1 cell growth in a cell viability assay.

COLO-668 = type: functional, cell-based, Homo sapiens; details: Homo sapiens, COLO-668
Description: SANGER: Inhibition of human COLO-668 cell growth in a cell viability assay.

P30-OHK = type: functional, cell-based, Homo sapiens; details: Homo sapiens, P30-OHK;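 further: growth inhibition of the P30-OHK cell line, read out with a cell viability assay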
Description: SANGER: Inhibition of human P30-OHK cell growth in a cell viability assay.

ES3 = type: functional, cell-based, Homo sapiens; details: Homo sapiens, ES3;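 further: growth inhibition of ES3 cells, read out with a cell viability assay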
Description: SANGER: Inhibition of human ES3 cell growth in a cell viability assay.

DMS-79 = type: functional, cell-based, Homo sapiens; details: Homo sapiens, DMS-79;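 further: growth inhibition measured with a cell viability assay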
Description: SANGER: Inhibition of human DMS-79 cell growth in a cell viability assay.

KMOE-2 = type: functional, cell-based, Homo sapiens; details: Homo sapiens, KMOE-2;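 further: growth inhibition of human KMOE-2 cells, read out with a cell viability assay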
Description: SANGER: Inhibition of human KMOE-2 cell growth in a cell viability assay.

SMILES: CCN(CC)CCCCNc1ncc2cc(-c3cc(OC)cc(OC)c3)c(NC(=O)NC(C)(C)C)nc2n1 [PD-173074]
- IC50 (MLMA): > 2000 nM
- IC50 (NB17): > 2000 nM
- IC50 (TGW): > 2000 nM
- IC50 (CTB-1): > 2000 nM
- IC50 (TGBC1TKB): > 2000 nM
- IC50 (NCI-H69): > 2000 nM
- IC50 (K562): > 2000 nM
- IC50 (SW982): > 2000 nM
- IC50 (LS-513): > 2000 nM
- IC50 (DSH1): > 2000 nM
- IC50 (SK-MEL-2): > 2000 nM
- IC50 (HL-60): > 2000 nM
- IC50 (MC116): > 2000 nM
- IC50 (ONS-76): > 2000 nM
- IC50 (CW-2): > 2000 nM
- IC50 (JAR): > 2000 nM
- IC50 (NH-12): > 2000 nM
- IC50 (MFM-223): 216 nM
- IC50 (HH): > 2000 nM
- IC50 (NCI-H1092): > 2000 nM
- IC50 (SK-UT-1): > 2000 nM
- IC50 (GAK): > 2000 nM
- IC50 (CGTH-W-1): > 2000 nM
- IC50 (OS-RC-2): > 2000 nM
- IC50 (QIMR-WIL): > 2000 nM
- IC50 (LS-123): > 2000 nM
- IC50 (KM12): > 2000 nM
- IC50 (OCUB-M): > 2000 nM
- IC50 (HD-MY-Z): > 2000 nM
- IC50 (EW-11): > 2000 nM
- IC50 (U-87 MG): > 2000 nM
- IC50 (HCC 2998): > 2000 nM
- IC50 (SNU-C2B): > 2000 nM
- IC50 (KU812 cell line): > 2000 nM
- IC50 (LC-2-ad): > 2000 nM
- IC50 (LAMA-84): > 2000 nM
- IC50 (8-MG-BA): > 2000 nM
- IC50 (KURAMOCHI): > 2000 nM
- IC50 (SBC-1): > 2000 nM
- IC50 (HAL-01): > 2000 nM
- IC50 (EW-13): > 2000 nM
- IC50 (A388): > 2000 nM
- IC50 (COR-L88): > 2000 nM
- IC50 (MS-1): > 2000 nM
- IC50 (COLO-668): > 2000 nM
- IC50 (P30-OHK): > 2000 nM
- IC50 (ES3): > 2000 nM

SMILES: N[C@@H](CSC(c1ccccc1)(c1ccccc1)c1ccccc1)C(=O)O [S-TRITYL-L-CYSTEINE]
- IC50 (MLMA): 4620 nM
- IC50 (DMS-79): > 5120 nM
- IC50 (NB17): 3070 nM
- IC50 (TGW): > 5120 nM
- IC50 (CTB-1): 3200 nM
- IC50 (TGBC1TKB): 2420 nM
- IC50 (NCI-H69): 3190 nM
- IC50 (K562): 1540 nM
- IC50 (SW982): 1070 nM
- IC50 (LS-513): > 5120 nM
- IC50 (DSH1): > 5120 nM
- IC50 (SK-MEL-2): > 5120 nM
- IC50 (HL-60): > 5120 nM
- IC50 (MC116): 709 nM
- IC50 (ONS-76): > 5120 nM
- IC50 (CW-2): > 5120 nM
- IC50 (JAR): 941 nM
- IC50 (NH-12): > 5120 nM
- IC50 (MFM-223): > 5120 nM
- IC50 (HH): 3510 nM
- IC50 (NCI-H1092): > 5120 nM
- IC50 (SK-UT-1): 626 nM
- IC50 (GAK): > 5120 nM
- IC50 (CGTH-W-1): > 5120 nM
- IC50 (OS-RC-2): > 5120 nM
- IC50 (QIMR-WIL): > 5120 nM
- IC50 (LS-123): > 5120 nM
- IC50 (KM12): 4670 nM
- IC50 (OCUB-M): 817 nM
- IC50 (HD-MY-Z): 2240 nM
- IC50 (EW-11): > 5120 nM
- IC50 (U-87 MG): > 5120 nM
- IC50 (KMOE-2): > 5120 nM
- IC50 (SNU-C2B): 1280 nM
- IC50 (KU812 cell line): > 5120 nM
- IC50 (LC-2-ad): 537 nM
- IC50 (LAMA-84): 3160 nM
- IC50 (8-MG-BA): > 5120 nM
- IC50 (KURAMOCHI): > 5120 nM
- IC50 (SBC-1): > 5120 nM
- IC50 (HAL-01): 2420 nM
- IC50 (EW-13): > 5120 nM
- IC50 (A388): 620 nM
- IC50 (COR-L88): > 5120 nM
- IC50 (MS-1): 2470 nM
- IC50 (COLO-668): > 5120 nM
- IC50 (P30-OHK): > 5120 nM
- IC50 (ES3): > 5120 nM
